According to patent US20050004126A1 (priority 2001, published 2005):

biological target: MMP-13CD (catalytic domain of collagenase 3) (Homo sapiens, UniProt P45452); experiment: Thiopeptolide hydrolysis assay, MMP-13; settings: MMP 13 IC50 μM, Table III;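 also: inhibition of enzymatic thiopeptolide substrate cleavage (100 µM) in pH 6.0 MES buffer with CaCl2 and DTNB, comparing hydrolysis with versus without inhibitor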
Procedure: They measure the amount by which a test compound reduces the hydrolysis of a thiopeptolide substrate caused by a matrix metalloproteinase enzyme.
Thiopeptolide substrates show virtually no decomposition or hydrolysis in the absence of a matrix metalloproteinase enzyme. A typical thiopeptolide substrate commonly utilized for assays is Ac-Pro-Leu-Gly-thioester-Leu-Leu-Gly-OEt. A 100 μL assay mixture will contain 50 mM of 2-morpholinoethane sulfonic acid monohydrate (MES, pH 6.0) 10 mM CaCl2, 100 μM thiopeptolide substrate, and 1 mM 5,5′-dithio-bis-(2-nitro-benzoic acid) (DTNB). […] Assays are carried out with and without matrix metalloproteinase inhibitor compounds, and the amount of hydrolysis is compared for a determination of inhibitory activity of the test compounds.

| IC50 [µM] | Structure (SMILES) |
| --- | --- |
| 8 | CCOc1ccccc1COC(=O)c1cc2c(=O)n(Cc3ccc(C(=O)O)cc3)c(=O)n(C)c2s1 |
| 0.15 | COC(=O)CCCCn1c(=O)c2cc(C(=O)OCc3ccccc3)sc2n(C)c1=O |
| 0.018 | COc1ccc(CNC(=O)c2cc3c(=O)n(Cc4ccc5nocc5c4)c(=O)n(C)c3s2)cc1 |
| 1.7 | COc1cccc(CNC(=O)c2cc3c(=O)n(CS(=O)(=O)Cc4ccccc4)c(=O)n(C)c3s2)c1 |
| 0.0505 | COc1cccc(CNC(=O)c2cc3c(=O)n(Cc4ccc5cocc5c4)c(=O)n(C)c3s2)c1 |

same assay, conditions: MMP13 IC50 μM, Table IVb

| Structure (SMILES) | IC50 [µM] |
| --- | --- |
| COc1ccc(CNC(=O)c2ccc3c(c2)c(=O)n(CCn2cccc2)c(=O)n3C)cc1 | 1.45 |
| C#CCn1c(=O)c2cc(C(=O)NCc3ccc(OC)cc3)ccc2n(C)c1=O | 0.68 |
| COc1ccc(CNC(=O)c2ccc3c(c2)c(=O)n(CC=C(C)C)c(=O)n3C)cc1 | 0.2 |
| COc1ccc(CNC(=O)c2ccc3c(c2)c(=O)n(Cc2ccc(-c4nnnn4C)cc2)c(=O)n3C)cc1 | 0.0023 |
| Cn1c(=O)c2cc(C(=O)NCc3ccc4c(c3)OCO4)cnc2n(C)c1=O | 3.85 |
| COc1ccc(CNC(=O)c2ccc3c(c2)c(=O)n(Cc2ccc(C(=O)O)c(O)c2)c(=O)n3C)cc1 | 0.0016 |
| COc1ccc(CNC(=O)c2ccc3c(c2)c(=O)n(Cc2ccc(C(=O)O)c(OC)c2)c(=O)n3C)cc1 | 0.0045 |
| COc1ccc(CNC(=O)c2ccc3c(c2)c(=O)n(Cc2ccc(C(=O)O)c(C)c2)c(=O)n3C)cc1 | 0.0018 |
| C=CCn1c(=O)c2cc(C(=O)NCc3ccc(OC)cc3)ccc2n(C)c1=O | 1.01 |
| COc1ccc(CNC(=O)c2ccc3c(c2)c(=O)n(CCS(=O)(=O)c2ccccc2)c(=O)n3C)cc1 | 0.84 |
| COc1ccc(CNC(=O)c2ccc3c(c2)c(=O)n(CCOc2ccc(F)cc2)c(=O)n3C)cc1 | 0.15 |
| COc1ccc(CNC(=O)c2ccc3[nH]c(=O)n(Cc4ccc(N(C)C)cc4)c(=O)c3c2)cc1 | 0.075 |
| CCn1c(=O)n(Cc2ccc(C(=O)O)cc2)c(=O)c2cc(C(=O)NCc3ccc(OC)cc3)ccc21 | 0.003 |
| Cn1c(=O)n(Cc2ccc(C(=O)O)cc2)c(=O)c2cc(C(=O)NCc3ccc4c(c3)OCO4)ccc21 | 0.0009 |
| COC(=O)c1ccc(Cn2c(=O)c3cc(C(=O)NCc4ccc(OC)cc4)ccc3n(C)c2=O)cc1Cl | 0.14 |
| COC(=O)c1ccc(Cn2c(=O)c3cc(C(=O)NCc4ccc(OC)cc4)ccc3n(C)c2=O)cc1O | 0.0043 |
| COC(=O)c1ccc(Cn2c(=O)c3cc(C(=O)NCc4ccc(OC)cc4)ccc3n(C)c2=O)cc1OC | 0.05 |
| COC(=O)c1ccc(Cn2c(=O)c3cc(C(=O)NCc4ccc(OC)cc4)ccc3n(C)c2=O)cc1C | 0.0077 |
| CCn1c(=O)n(Cc2ccc(C(=O)OC)cc2)c(=O)c2cc(C(=O)NCc3ccc(OC(F)(F)F)cc3)ccc21 | 0.34 |
| CCn1c(=O)n(Cc2ccc(C(=O)OC)cc2)c(=O)c2cc(C(=O)NCc3ccc(OC)cc3)ccc21 | 0.031 |
| COC(=O)c1ccc(Cn2c(=O)[nH]c3ccc(C(=O)NCc4ccc(OC)cc4)cc3c2=O)cc1 | 0.009 |
| COC(=O)c1ccc(Cn2c(=O)c3cc(C(=O)NCc4ccc5c(c4)OCO5)ccc3n(C)c2=O)cc1 | 0.0028 |
| COC(=O)c1ccc(Cn2c(=O)c3cc(C(=O)NCc4ccc5nonc5c4)ccc3n(C)c2=O)cc1 | 0.035 |
| COC(=O)Cn1c(=O)n(Cc2ccccc2)c(=O)c2cc(C(=O)NCc3ccc4c(c3)OCO4)ccc21 | 0.16 |
| O=C(O)Cn1c(=O)n(Cc2ccccc2)c(=O)c2cc(C(=O)NCc3ccc4c(c3)OCO4)ccc21 | 0.105 |
| COc1ccc(CNC(=O)c2ccc3c(c2)c(=O)n(Cc2ccc(NC(=O)OC(C)(C)C)nc2)c(=O)n3C)cc1 | 0.015 |

Further lines, results first:

| IC50 [µM] | Structure (SMILES) |
| --- | --- |
| 0.24 | Cn1c(=O)n(CC=Cc2ccncc2)c(=O)c2cc(C(=O)NCc3ccncc3)ccc21 |
| 0.0009 | COc1ccc(CNC(=O)c2ccc3c(c2)c(=O)n(Cc2ccc(-c4nn[nH]n4)cc2)c(=O)n3C)cc1 |
| 0.051 | Cn1c(=O)n(Cc2ccncc2)c(=O)c2cc(C(=O)NCc3ccc(O)cc3)ccc21 |
| 0.004 | COc1ccc(CNC(=O)c2ccc3c(c2)c(=O)n(Cc2ccc(-c4nnn(C)n4)cc2)c(=O)n3C)cc1 |
| 0.0029 | COc1ccc(CNC(=O)c2ccc3c(c2)c(=O)n(Cc2ccc(-c4nc(C)no4)cc2)c(=O)n3C)cc1 |
| 0.0049 | COc1ccc(CNC(=O)c2ccc3c(c2)c(=O)n(Cc2ccc(-c4noc(C)n4)cc2)c(=O)n3C)cc1 |
| 0.0064 | CNC(=O)c1ccc(Cn2c(=O)c3cc(C(=O)NCc4ccc(OC)cc4)ccc3n(C)c2=O)cc1 |
| 0.004 | COc1ccc(CNC(=O)c2ccc3c(c2)c(=O)n(Cc2ccc(C(=O)O)c(Cl)c2)c(=O)n3C)cc1 |
| 0.018 | COc1ccc(CNC(=O)c2ccc3c(c2)c(=O)n(Cc2ccc4nonc4c2)c(=O)n3C)cc1 |
| 0.34 | Cn1c(=O)n(Cc2ccccc2)c(=O)c2cc(C(=O)NCc3ccc(C#N)cc3)ccc21 |
| 0.026 | Cn1c(=O)n(Cc2ccccc2)c(=O)c2cc(C(=O)NCCCSc3ccncc3)ccc21 |
| 0.009 | COc1ccc(CNC(=O)c2ccc3c(c2)c(=O)n(Cc2ccc(NC(C)=O)cc2)c(=O)n3C)cc1 |
| 0.053 | Cn1c(=O)n(Cc2ccc(C#N)cc2)c(=O)c2cc(C(=O)NCc3ccncc3)ccc21 |
| 0.028 | COc1ccc(CNC(=O)c2ccc3c(c2)c(=O)n(Cc2ccc(N(C)C)cc2)c(=O)n3C)cc1 |
| 0.057 | Cn1c(=O)n(Cc2ccc(O)cc2)c(=O)c2cc(C(=O)NCc3ccncc3)ccc21 |
| 0.06 | COc1ccc(Cn2c(=O)c3cc(C(=O)NCc4ccncc4)ccc3n(C)c2=O)cc1 |

| IC50 [µM] | Structure (SMILES) |
| --- | --- |
| 0.004 | COc1ccc(CNC(=O)c2ccc3c(c2)c(=O)n(Cc2ccc(NS(C)(=O)=O)cc2)c(=O)n3C)cc1 |
| 0.053 | COc1ccc(CNC(=O)c2ccc3c(c2)c(=O)n(Cc2ccc(N)nc2)c(=O)n3C)cc1 |
| 0.0057 | Cn1c(=O)n(Cc2ccc(C(=O)O)cc2)c(=O)c2cc(C(=O)NCc3ccncc3)ccc21 |
| 0.0029 | CSc1ccc(CNC(=O)c2ccc3c(c2)c(=O)n(Cc2ccc(C(=O)O)cc2)c(=O)n3C)cc1 |
| 0.0009 | COc1cccc(CNC(=O)c2ccc3c(c2)c(=O)n(Cc2ccc(C(=O)O)cc2)c(=O)n3C)c1 |
| 0.0018 | Cn1c(=O)n(Cc2ccc(C(=O)O)cc2)c(=O)c2cc(C(=O)NCc3ccc(F)cc3)ccc21 |
| 0.003 | Cn1c(=O)n(Cc2ccc(C(=O)O)cc2)c(=O)c2cc(C(=O)NCc3ccc4nonc4c3)ccc21 |
| 0.72 | CCOC(=O)COc1ccc(CNC(=O)c2ccc3c(c2)c(=O)n(Cc2ccccc2)c(=O)n3C)cc1 |
| 0.1 | COC(=O)c1ccc(Cn2c(=O)c3cc(C(=O)NCc4cc[n+]([O-])cc4)ccc3n(C)c2=O)cc1 |
| 0.023 | COC(=O)c1ccc(Cn2c(=O)c3cc(C(=O)NCc4ccncc4)ccc3n(C)c2=O)cc1 |
| 0.023 | COC(=O)c1ccc(Cn2c(=O)c3cc(C(=O)NCc4ccc(SC)cc4)ccc3n(C)c2=O)cc1 |
| 0.003 | COC(=O)c1ccc(Cn2c(=O)c3cc(C(=O)NCc4cccc(OC)c4)ccc3n(C)c2=O)cc1 |
| 0.01 | COC(=O)c1ccc(Cn2c(=O)c3cc(C(=O)NCc4ccc(F)cc4)ccc3n(C)c2=O)cc1 |
| 0.02 | COC(=O)Cc1ccc(Cn2c(=O)c3cc(C(=O)NCc4ccncc4)ccc3n(C)c2=O)cc1 |
| 0.011 | Cn1c(=O)n(Cc2ccc(CC(=O)O)cc2)c(=O)c2cc(C(=O)NCc3ccncc3)ccc21 |
| 2.9 | Cn1c(=O)n(Cc2ccccc2)c(=O)c2cc(C(=O)NCc3ccc(OCC(=O)O)cc3)ccc21 |
